According to patent US20080300147A1, “Detection and Treatment of Fibrotic Disorders” (priority 2004, published 2008):

Legend:
[1] = tested on: myometrial smooth muscle cells (MSMC); assay: Realtime PCR mRNA expression in treated MSMC; format: cell-based, human
Procedure: (§1) Isolation and Culture of Leiomyoma and Myometrial Smooth Muscle Cells. […] Only untreated tissues were used for isolation of LSMC and MSMC. […] LSMC and MSMC were cultured in 6-well plates at an approximate density of 10^6 cells/well in DMEM-supplemented media containing 10% FBS. After reaching visual confluence, the cells were washed in serum-free media and incubated for 24 hrs under serum-free, phenol red-free condition (Chegini, N et al. Mol Hum Reprod, 2002, 8:1071-8).
(§2) Quantitative RealTime PCR. Realtime PCR was utilized for verification of 10 differentially expressed and regulated genes identified in leiomyoma and myometrium as well as LSMC and MSMC from untreated and GnRHa-treated cohorts. The selection of these genes was based not only on their expression values (up or downregulation), but classification and biological functions important to leiomyoma growth and regression, regulation by ovarian steroids, GnRHa and TGF-β. They are IL-11, CITED2, Nur77, EGR3, TGIF, TIEG, p27, p57, GAS-1 and GPRK5 representing cytokines, transcription factors, cell cycle regulators and signal transduction.
(§3) Determination of TGF-β1 on global gene expression in LSMC and MSMC. All the materials utilized for this study including isolation of leiomyoma and myometrial cells are identical to those described in detail above. To determine the effect of TGF-β1 on global gene expression in LSMC and MSMC, the cells were cultured in 6-well plates at approximate density of 10^6 cells/well in DMEM-supplemented media containing 10% FBS. […] The cells were then treated with 2.5 ng/ml of TGF-β1 (R & D System, Minneapolis, […].) for 2, 6 and 12 hours. […] The cells were washed and then treated with TGF-β1 (2.5 ng/ml) for 2 hours. Parallel experiments using untreated cells were used as controls including an additional control for TGF-β type II receptor antisense and sense experiments.
(§4) Total cellular RNA was isolated from LSMC- and MSMC-treated and untreated controls and subjected to microarray analysis. To maintain standard and allow for comparative analysis, the GeneChips used in this study were utilized, simultaneously processed and their gene expression values were subjected to global normalization and transformation. Following these unsupervised assessments the coefficient of variation was calculated for each probe set across all the chips used in this study, and the selected gene expression values of this study were independently subjected to supervised learning including R programming analysis and ANOVA with false discovery rate selected at p<0.001 (Moustakas, A. Immunol Lett, 2002, 82:85-91; Verrecchia, F. et al. J Biol Chem, 2001, 276:17058-17062). The genes identified in these cohorts were analyzed for functional annotation and visualized using Database for Annotation, Visualization, and Integrated Discovery (DAVID) software with integrated GoCharts. Following the analysis, we selected 12 of the differentially expressed and regulated genes, including 10 identified and validated in leiomyoma and myometrium from untreated and GnRHa-treated cohorts, as well as LSMC and MSMC treated in vitro with GnRHa, for validation in response to TGF-β-time dependent action using Realtime PCR. They include IL-11, EGR3, CITED2, TIEG, TGIF, Nur77, p27, p57, GAS-1 and GPRK5. In addition, the expression of Runx1 and Runx2, transcription factors that interact with TGF-β receptor signaling pathways (Zavadil, J. et al. Proc Natl Acad Sci USA, 2001, 98:6686-6691), was validated in LSMC and MSMC as well as in leiomyoma and myometrium from GnRHa-treated and untreated cohorts. Detail description of the materials and methods for Realtime PCR as well as data analysis is provided in Chegini, N. et al. J Soc Gynecol Investig, 2003, 10:161-71.
(§5) Isolation and Culture of Leiomyoma and Myometrial Smooth Muscle Cells. Leiomyoma and myometrial smooth muscle cells (LSMC and MSMC) were isolated and cultured as previously described (Chegini, N. et al. Mol Hum Reprod, 2002, 8:1071-1078). […]

[2] = tested on: leiomyoma smooth muscle cells (LSMC); assay: Realtime PCR mRNA expression in treated LSMC; format: cell-based, human
Procedure: as §1, §2, §3, §4, §5

[3] = U0126 20 μM 2 hrs, then GnRHa 0.1 μM 2 hrs
[4] = U0126 20 μM 2 hrs, then TGF-β1 2.5 ng/ml 2 hrs
[5] = TGF-β1 2.5 ng/ml, 2, 6 and 12 hours
[6] = TGF-β1 2.5 ng/ml, 2, 6 and 12 hrs

N#CC(=C(/N)Sc1ccccc1N)/C(C#N)=C(\N)Sc1ccccc1N [U0126] was tested, and the “GnRHa-mediated action on CCN2 expression in MSMC” value [1, 3] was “altered”, the “GnRHa-mediated action on CCN3 expression in MSMC” value [1, 3] was “altered” and the “GnRHa-mediated action on CCN4 expression in MSMC” value [1, 3] was “altered”. The “GnRHa-mediated action on S100A4 expression in MSMC” value [1, 3] was “altered”, the “GnRHa-mediated action on fibulin-1C expression in MSMC” value [1, 3] was “altered” and the “expression of FMOD in MSMC treated with GnRHa” value ([1]; U0126 20 μM 2 hrs, then GnRHa 2 hrs, compared to untreated control) was “increased”. The “TGF-β-mediated CCN3 expression in MSMC” value [1, 4] was “inhibited”, the “TGF-β-mediated CCN4 expression in MSMC” value [1, 4] was “inhibited” and the “TGF-β-mediated S100A4 expression in MSMC” value [1, 4] was “inhibited”. For the same molecule, the “TGF-β-mediated action on CCN2 in MSMC” value [1, 4] was “limited effect”, the “TGF-β-mediated action on FMOD in MSMC” value [1, 4] was “inhibiting” and the “TGF-β-mediated fibulin-1C expression in MSMC” value [1, 4] was “inhibited”. The “basal CCN2 mRNA expression in MSMC” value ([1]; U0126 20 μM pretreatment 2 hrs) was “altered”, the “basal CCN3 mRNA expression in MSMC” value ([1]; U0126 20 μM pretreatment 2 hrs) was “altered” and the “basal CCN4 mRNA expression in MSMC” value ([1]; U0126 20 μM pretreatment 2 hrs) was “altered”. The “basal S100A4 mRNA expression in MSMC” value ([1]; U0126 20 μM pretreatment 2 hrs) was “altered”, the “basal expression of FMOD in MSMC” value ([1]; U0126 20 μM pretreatment 2 hrs) was “increased” and the “basal fibulin-1C mRNA expression in MSMC” value ([1]; U0126 20 μM pretreatment 2 hrs) was “altered”. For the same molecule, the “GnRHa-mediated action on CCN2 expression in LSMC” value [2, 3] was “altered”, the “GnRHa-mediated action on CCN3 expression in LSMC” value [2, 3] was “altered” and the “GnRHa-mediated action on CCN4 expression in LSMC” value [2, 3] was “altered”. For the same molecule, the “GnRHa-mediated action on S100A4 expression in LSMC” value [2, 3] was “altered”, the “GnRHa-mediated action on fibulin-1C expression in LSMC” value [2, 3] was “altered” and the “expression of FMOD in LSMC treated with GnRHa” value ([2]; U0126 20 μM 2 hrs, then GnRHa 2 hrs, compared to U0126-treated cells) was “increased”. The “TGF-β-mediated CCN4 expression in LSMC” value [2, 4] was “inhibited”, the “TGF-β-mediated S100A4 expression in LSMC” value [2, 4] was “inhibited” and the “TGF-β-mediated action on CCN2 in LSMC” value [2, 4] was “limited effect”. For the same molecule, the “TGF-β-mediated action on FMOD in LSMC” value [2, 4] was “increased”, the “TGF-β-mediated fibulin-1C expression in LSMC” value [2, 4] was “inhibited” and the “basal CCN2 mRNA expression in LSMC” value ([2]; U0126 20 μM pretreatment 2 hrs) was “altered”. The “basal CCN3 mRNA expression in LSMC” value ([2]; U0126 20 μM pretreatment 2 hrs) was “altered”, the “basal CCN4 mRNA expression in LSMC” value ([2]; U0126 20 μM pretreatment 2 hrs) was “altered” and the “basal S100A4 mRNA expression in LSMC” value ([2]; U0126 20 μM pretreatment 2 hrs) was “altered”. For the same molecule, the “basal expression of FMOD in LSMC” value ([2]; U0126 20 μM pretreatment 2 hrs) was “increased” and the “basal fibulin-1C mRNA expression in LSMC” value ([2]; U0126 20 μM pretreatment 2 hrs) was “altered”.

“TGF-β1: human recombinant TGF-β1 (R&D System), used at 2.5 ng/ml” was tested, and the “GAS1 expression in MSMC” value [1, 5] was “suppression”, the “Nur77 expression in MSMC” value [1, 5] was “transiently increased” and the “TGIF expression in MSMC” value [1, 5] was “transiently increased”. For the same molecule, the “TIEG expression in MSMC” value [1, 5] was “transiently increased”, the “p27Kip1 expression in MSMC” value [1, 5] was “biphasic fashion” and the “p57Kip2 expression in MSMC” value [1, 5] was “biphasic fashion”. The “CCN3 mRNA expression in MSMC” value [1, 6] was “inhibiting”, the “S100A4 mRNA expression in MSMC” value [1, 6] was “moderately inhibiting” and the “fibulin-1C mRNA expression in MSMC” value [1, 6] was “increasing”. The “increase of CCN4 mRNA expression in MSMC” value [1, 6] was “two fold”, the “increase in FMOD expression in MSMC” value ([1]; TGF-β1 2.5 ng/ml, declined to control levels) was 5-10 fold and the “FMOD expression in MSMC” value ([1]; TGF-β1 2.5 ng/ml, gradual reduction to control levels after 12 hrs) was “significantly increased”. The “Gas1 expression in LSMC” value [2, 5] was “suppressed”, the “Nur77 expression in LSMC” value [2, 5] was “transiently increased” and the “TGIF expression in LSMC” value [2, 5] was “transiently increased”. For the same molecule, the “TIEG expression in LSMC” value [2, 5] was “transiently increased”, the “p27Kip1 expression in LSMC” value [2, 5] was “suppressed” and the “p57Kip2 expression in LSMC” value [2, 5] was “suppressed”. For the same molecule, the “CCN3 mRNA expression in LSMC” value [2, 6] was “inhibiting”, the “S100A4 mRNA expression in LSMC” value [2, 6] was “moderately inhibiting” and the “fibulin-1C mRNA expression in LSMC” value [2, 6] was “moderately inhibiting”. For the same molecule, the “increase of CCN4 mRNA expression in LSMC” value [2, 6] was “two fold” and the “FMOD expression in LSMC” value ([2]; TGF-β1 2.5 ng/ml, inhibition after 12 hrs) was “either no effect, or inhibited”.
